# Reference: ChEMBL document CHEMBL6087479, “Discovery of a Potent and Selective GSPT1 Molecular Glue Degrader for the Treatment of Castration-Resistant Prostate Cancer” (J Med Chem, 2025)
# Activity calls are given as the source filed them. The calls are words filed in the database; no cut-off is given here.
# Assays:
# LNCaP C4-2B = assay: cells; conditions: Homo sapiens, 96 h
# Description: Antiproliferative activity against human LNCaP C4-2B cells assessed as inhibition of cell proliferation incubated for 96 hrs by CellTiter-Glo assay
# CWR22R [1] = assay: cells; conditions: Homo sapiens, 22Rv1, 96 h
# Description: Antiproliferative activity against human 22Rv1 cells assessed as inhibition of cell proliferation incubated for 96 hrs by CellTiter-Glo assay
# LNCaP = assay: cells; conditions: Homo sapiens, 96 h
# Description: Antiproliferative activity against human LNCaP cells assessed as inhibition of cell proliferation incubated for 96 hrs by CellTiter-Glo assay
# [2] = molecular target: Protein cereblon/Bromodomain-containing protein 4 (Homo sapiens) (UniProt O60885+Q96SW2); assay: Molecular glue degradation activity at CRBN/BRD4 in human 22Rv1 cells at 12 to 1000 nM incubated for 6 hrs by Immunoblotting analysis; type: cell-based; conditions: dose 12-1000 nM
# [3] = molecular target: Protein cereblon/Eukaryotic peptide chain release factor GTP-binding subunit ERF3A (Homo sapiens) (UniProt Q96SW2+P15170); assay: Protac activity at CRBN/GSPT1 in human 22Rv1 cells assessed as GSPT1 degradation at 12 to 1000 nM incubated for 6 hrs by Western blotting analysis; type: cell-based; conditions: dose 12-1000 nM
# CWR22R [4] = assay: Downregulation of GSPT1 protein level in human 22Rv1 cells at 500 nM incubated for 6 hrs by mass spectrometry-based label-free quantitative proteomics analysis; type: functional, cell-based
# CWR22R [5] = assay: Downregulation of BRD2 protein level in human 22Rv1 cells at 500 nM incubated for 6 hrs by mass spectrometry-based label-free quantitative proteomics analysis; type: functional, cell-based
# CWR22R [6] = assay: Antiproliferative activity against human 22Rv1 cells assessed as inhibition of cell proliferation by CellTiter-Glo assay
# Sequence of Protein cereblon/Eukaryotic peptide chain release factor GTP-binding subunit ERF3A (Homo sapiens) (P15170 whole entry, looked up): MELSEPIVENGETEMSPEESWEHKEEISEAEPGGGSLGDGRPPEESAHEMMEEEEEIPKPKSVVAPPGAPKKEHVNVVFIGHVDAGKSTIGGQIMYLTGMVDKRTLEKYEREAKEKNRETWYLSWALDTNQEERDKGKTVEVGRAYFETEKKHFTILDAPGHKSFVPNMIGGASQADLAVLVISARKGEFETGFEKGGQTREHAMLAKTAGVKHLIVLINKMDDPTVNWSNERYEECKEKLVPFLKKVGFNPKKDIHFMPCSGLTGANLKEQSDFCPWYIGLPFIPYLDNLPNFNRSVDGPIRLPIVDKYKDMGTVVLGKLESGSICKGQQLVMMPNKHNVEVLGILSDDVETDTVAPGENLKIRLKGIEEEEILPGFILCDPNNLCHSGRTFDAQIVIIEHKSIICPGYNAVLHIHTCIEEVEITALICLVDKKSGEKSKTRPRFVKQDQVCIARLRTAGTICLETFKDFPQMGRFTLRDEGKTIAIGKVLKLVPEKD
# Sequence of Protein cereblon/Eukaryotic peptide chain release factor GTP-binding subunit ERF3A (Homo sapiens) (Q96SW2 whole entry, looked up): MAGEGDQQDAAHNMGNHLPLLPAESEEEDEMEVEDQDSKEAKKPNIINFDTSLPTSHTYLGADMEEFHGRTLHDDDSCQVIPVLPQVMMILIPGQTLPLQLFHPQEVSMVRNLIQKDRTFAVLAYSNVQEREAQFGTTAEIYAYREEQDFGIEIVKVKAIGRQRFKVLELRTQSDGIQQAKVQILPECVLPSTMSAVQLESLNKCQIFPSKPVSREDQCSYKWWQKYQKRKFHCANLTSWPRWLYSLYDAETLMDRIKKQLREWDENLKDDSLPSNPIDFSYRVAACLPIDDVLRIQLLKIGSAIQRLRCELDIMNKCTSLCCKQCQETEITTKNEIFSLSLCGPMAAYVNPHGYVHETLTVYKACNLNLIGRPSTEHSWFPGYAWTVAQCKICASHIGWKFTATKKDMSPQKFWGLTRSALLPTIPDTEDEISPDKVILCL
# Sequence of Protein cereblon/Bromodomain-containing protein 4 (Homo sapiens) (Q96SW2 whole entry, looked up, other chains not shown): as the sequence (Q96SW2 whole entry, looked up) above
IC50 (LNCaP C4-2B),IC50 (CWR22R [1]),IC50 (LNCaP),Activity [2],Compound,Activity [3],Activity (CWR22R [4]),Activity (CWR22R [5]),IC50 (CWR22R [6])
> 10000 nM,> 10000 nM,> 10000 nM,–,COc1ccc(Br)cc1S(=O)(=O)Nc1cc2c(C)noc2cc1OCC(=O)NCCCCCCNc1ccc2c(c1)C(=O)N(C1CCC(=O)NC1=O)C2=O (centres undefined),–,–,–,–
624 nM,26 nM,100 nM,inactive,COc1ccc(Br)cc1S(=O)(=O)Nc1cc2c(C)noc2cc1OCC(=O)NCCCNc1cccc2c1C(=O)N(C1CCC(=O)NC1=O)C2=O (centres undefined),Active; Moderate Effect Of Degradation Observed,–,–,–
> 10000 nM,> 10000 nM,> 10000 nM,–,COc1ccc(Br)cc1S(=O)(=O)Nc1cc2c(C)noc2cc1OCC(=O)NCCCCCCNC(=O)COc1cccc2c1C(=O)N(C1CCC(=O)NC1=O)C2=O (centres undefined),–,–,–,–
> 10000 nM,> 10000 nM,> 10000 nM,–,COc1ccc(Br)cc1S(=O)(=O)Nc1cc2c(C)noc2cc1OCC(=O)NCCCCNc1ccc2c(c1)C(=O)N(C1CCC(=O)NC1=O)C2=O (centres undefined),–,–,–,–

# More lines, now with the values behind:
Compound,IC50 (LNCaP C4-2B),IC50 (CWR22R [1]),IC50 (LNCaP),Activity [2],Activity [3],Activity (CWR22R [4]),Activity (CWR22R [5]),IC50 (CWR22R [6])
COc1ccc(Br)cc1S(=O)(=O)Nc1cc2c(C)noc2cc1OCC(=O)NCCCCCCNc1cccc2c1C(=O)N(C1CCC(=O)NC1=O)C2=O (centres undefined),> 10000 nM,909 nM,2480 nM,inactive,Active; Moderate Effect Of Degradation Observed,–,–,–
COc1ccc(Br)cc1S(=O)(=O)Nc1cc2c(C)noc2cc1OCC(=O)NCCCCNc1cccc2c1C(=O)N(C1CCC(=O)NC1=O)C2=O (centres undefined),1430 nM,62 nM,112 nM,inactive,Active; Moderate Effect Of Degradation Observed,–,–,–
COc1ccc(Br)cc1S(=O)(=O)Nc1cc2c(C)noc2cc1OCC(=O)NCCCNC(=O)COc1cccc2c1C(=O)N(C1CCC(=O)NC1=O)C2=O (centres undefined),> 10000 nM,> 10000 nM,> 10000 nM,–,–,–,–,–
Cc1sc2c(c1C)C(c1ccc(Cl)cc1)=N[C@@H](CC(=O)NCCCCNC(=O)COc1cccc3c1C(=O)N(C1CCC(=O)NC1=O)C3=O)c1nnc(C)n1-2 (some centres undefined),3110 nM,1750 nM,2250 nM,Active,–,inactive,Active,–
O=C1CCC(N2Cc3cc(CNC(=O)C(F)(F)c4ccc(Cl)cc4)ccc3C2=O)C(=O)N1 (centres undefined),–,–,–,–,–,–,–,16 nM
